The values that follow come from US11008612B2, “Methods and apparatus for single molecule sequencing using energy transfer detection” (Life Technologies Corporation, priority 2009, dated 2021).

A short description of data set [1]: solubility of core nanoparticles in solvents.
Description: The solubility of the aliquoted samples was observed. […] Six of the aliquoted samples were centrifuged and the resulting clear, colorless supernatants were discarded.
The test system of data set [2] is duplex Alexa fluor 546 dye-labeled-DNA template and AF647-C6-dG6P. Nature of the data set: Stopped-flow measurements of tpol (nucleotide incorporation kinetics). It counts as biochemical. Conditions: 330 nM polymerase, 100 nM template/primer duplex, 7 μM AF647-C6-dG6P, 2 mM MnCl2; tpol = 1/kpol. The method, then: The kinetics of nucleotide incorporation by B103 (exo-) (SEQ ID NO:5) and an H370R mutant (SEQ ID NO:3) DNA polymerases were measured in an Applied Photophysics SX20 stopped-flow spectrometer by monitoring changes in fluorescence from a duplex Alexa fluor 546 dye-labeled-DNA template following the mixing of the enzyme-DNA complex with dye-labeled nucleotides (AF647-C6-dG6P) in the reaction buffer containing 50 mM Tris-HCl, pH 7.5, 50 mM NaCl, 4 mM DTT, 0.2% BSA, and 2 mM MnCl2. The reactions included 330 nM recombinant DNA polymerase, 100 nM template/primer duplex, and 7 μM labeled nucleotides.
The averaged (5 traces) stopped-flow fluorescence traces (>1.5 ms) were fitted with a double exponential equation (1) to extrapolate the rates of the nucleotide binding and product release, Fluorescence=A1*e^−k^1^*t+A2*e^−k^pol^*t+C (equation 1) where A1 and A2 represent corresponding fluorescence amplitudes, C is an offset constant, and k1 and kpol are the observed rate constants for the fast and slow phases of the fluorescence transition, respectively. The dye-labeled nucleotides comprise terminal-phosphate-labeled nucleotides having an alkyl linker with a functional amine group attached to the dye. The stopped-flow techniques for measuring tpol (1/kpol) followed the techniques described by M P Roettger (2008 Biochemistry 47:9718-9727; M. Bakhtina 2009 Biochemistry 48:3197-320). 2) B103 Polymerase: Stopped-Flow Measurements of t−1

Data set [3] concerns [enzyme⋅DNA⋅labeled nucleotide] ternary complex (AF647-C6-dG6P). Nature of the data set: Stopped-flow measurements of t−1 (nucleotide dissociation from ternary complex). In kind it is binding. Conditions: ternary complex mixed with 50 μM cognate non-labeled dNTP, 2 mM MnCl2; t−1 = 1/k−1. As for the experimental part:
The rate of the nucleotide dissociation (k−1) from the ternary complex of [enzyme⋅DNA⋅nucleotide] was measured in an Applied Photophysics SX20 stopped-flow spectrometer by monitoring changes […] a duplex Alexa fluor 546 dye-labeled-DNA template following the mixing of the [enzyme⋅DNA⋅labeled nucleotide] ternary complex with 50 μM cognate non-labeled deoxynucleoside triphosphate in a buffer containing 50 mM Tris-HCl (pH 7.5), 50 mM NaCl, 4 mM DTT, 0.2% BSA, and 2 mM MnCl2.
The ternary complexes were prepared using: 330 nM polymerase, 100 nM template/primer duplex, and 7 μM terminal phosphate-labeled nucleotides (AF647-C6-dG6P).
The averaged stopped-flow fluorescence traces (>1.5 msec) were fitted with a single exponential equation (2) to extrapolate the rate of the nucleotide dissociation (k−1) from the [enzyme⋅DNA⋅nucleotide] ternary complex. Fluorescence=A1*e^−k^−1^*t+C (equation 2) where A1 represents the corresponding fluorescence amplitude, C is an offset constant, and k−1 and the observed rate constants for the fluorescence transition. The stopped-flow techniques for measuring t−1 (1/k−1) followed the techniques described by M. Bakhtina (2009 Biochemistry 48:3197-3208).

The subject of a further data set is template. Nature of the data set: template extension activity (DNA extension assay). In kind it is biochemical. As to conditions: stock unconjugated polymerase. As for the experimental part: A 150 nM master mix solution of a labeled hairpin oligonucleotide 221 was prepared by diluting the appropriate quantity of a 50 μM stock solution with extension buffer (50 mM TRIS, pH 8, 50 mM NaCl, 10 mM MgCl2). 450 μl of a master mix was prepared for each sample being tested.
The conjugate being tested was diluted in 450 μl of the master mix such that the final concentration of the conjugate is in the range of 10 nM to 50 nM. The positive control samples of free PKAΦ29 were similarly diluted. The sample solution was deposited in four microtiter plate wells, at 100 μl/well.
The microtiter plate was placed in a plate reader (Molecular Devices, SpectraMax M5) and set up to monitor the fluorescence as function of time (excitation 490 nm, emission 535 nm, cutoff filter 515 nm). Just prior to starting the plate reader, 2 μl of 1 mM dATP was added to each of two microtiter wells to start the extension reaction. The other two microtiter wells with sample represent no extension controls. The plate was read for an hour or until the samples reached saturation. […]

As for `CCOC(=O)CCCCCP(=O)(O)O` [6-ethoxy-6-oxohexylphosphonic acid], in data set [1], the solubility in solvents entry is listed as “not soluble in hexane”. Take “B103 (exo-): B103 (exo-) DNA polymerase (SEQ ID NO:5)”: the tpol in data set [2] came out at 14. In addition, in data set [3], the “t−1” value came to 16. Turning to “H370R: H370R mutant B103 DNA polymerase (SEQ ID NO:3)”, in data set [2], the tpol is 17. For the same molecule, in data set [3], the “t−1” value is given as 43.

For “K509Y: B103 polymerase with amino acid substitution K509Y”, in data set [2], the tpol was found to be 10. Further, in data set [3], the “t−1” value is listed as 20. Molecule “stock HP1-B104-H370R (exo-) polymerase: stock His-tagged HP1-B103 H370R exo- polymerase (SEQ ID NO:3)” showed a DNA extension assay with template of 0.29 base/sec/enzyme.
